{"source": "the SangsterLogP compilation", "assay": "method code SF-AS, from DOI: 10.1016/0223-5234(92)90084-e", "data": [{"smiles": "COCc1csc(-c2ccc(C(C)C(=O)O)cc2)n1", "note": "(centres undefined)", "values": [{"measurement": "logP", "result": 2.78}]}, {"smiles": "CCCCc1csc(-c2ccc(C(C)C(=O)O)cc2Cl)n1", "note": "(centres undefined)", "values": [{"measurement": "logP", "result": 4.84}]}, {"smiles": "CCc1csc(-c2ccc(C(C)C(=O)O)cc2F)n1", "note": "(centres undefined)", "values": [{"measurement": "logD", "setting": "pH 2.0", "result": 3.58}]}, {"smiles": "C=Cc1csc(-c2ccc(C(C)C(=O)O)cc2)n1", "note": "(centres undefined)", "values": [{"measurement": "logD", "setting": "pH 2.0", "result": 3.54}]}, {"smiles": "CCc1nc(-c2ccc(C(C)C(=O)O)cc2)sc1C", "note": "(centres undefined)", "values": [{"measurement": "logP", "result": 3.99}]}, {"smiles": "CC(C(=O)O)c1ccc(-c2nc(-c3ccccc3)cs2)cc1", "note": "(centres undefined)", "values": [{"measurement": "logD", "setting": "pH 2.0", "result": 4.81}]}, {"smiles": "Cc1csc(-c2ccc(C(C)C(=O)O)cc2F)n1", "note": "(centres undefined)", "values": [{"measurement": "logP", "result": 3.52}]}, {"smiles": "CC(C)c1csc(-c2ccc(C(C)C(=O)O)cc2Cl)n1", "note": "(centres undefined)", "values": [{"measurement": "logD", "setting": "pH 2.0", "result": 4.26}]}, {"smiles": "CC(C)c1csc(-c2ccc(C(C)C(=O)O)cc2F)n1", "note": "(centres undefined)", "values": [{"measurement": "logD", "setting": "pH 2.0", "result": 4.04}]}, {"smiles": "Cc1csc(-c2ccc(C(C)C(=O)O)cc2)n1", "note": "(centres undefined)", "values": [{"measurement": "logP", "result": 3.03}]}, {"smiles": "CCCCc1csc(-c2ccc(C(C)C(=O)O)cc2)n1", "note": "(centres undefined)", "values": [{"measurement": "logP", "result": 4.04}]}, {"smiles": "CC(C(=O)O)c1ccc(-c2nc(C(F)(F)F)cs2)cc1", "note": "(centres undefined)", "values": [{"measurement": "logD", "setting": "pH 2.0", "result": 3.78}]}, {"smiles": "CC(=O)c1csc(-c2ccc(C(C)C(=O)O)cc2)n1", "note": "(centres undefined)", "values": [{"measurement": "logD", "setting": "pH 2.0", "result": 2.65}]}, {"smiles": "CC(C(=O)O)c1ccc(-c2nc(CO)cs2)cc1", "note": "(centres undefined)", "values": [{"measurement": "logP", "result": 2.25}]}, {"smiles": "CC(C(=O)O)c1ccc(-c2nccs2)c([N+](=O)[O-])c1", "note": "(centres undefined)", "values": [{"measurement": "logP", "result": 2.06}]}, {"smiles": "CC(C(=O)O)c1ccc(-c2nc3c(s2)CCCC3)cc1", "note": "(centres undefined)", "values": [{"measurement": "logP", "result": 4.41}]}, {"smiles": "CCc1cnc(-c2ccc(C(C)C(=O)O)cc2Cl)s1", "note": "(centres undefined)", "values": [{"measurement": "logP", "result": 4.39}]}, {"smiles": "C=CCc1csc(-c2ccc(C(C)C(=O)O)cc2)n1", "note": "(centres undefined)", "values": [{"measurement": "logD", "setting": "pH 2.0", "result": 3.4}]}, {"smiles": "COc1cc(C(C)C(=O)O)ccc1-c1nccs1", "note": "(centres undefined)", "values": [{"measurement": "logP", "result": 2.47}]}, {"smiles": "CCc1cnc(-c2ccc(C(C)C(=O)O)cc2F)s1", "note": "(centres undefined)", "values": [{"measurement": "logP", "result": 4.1}]}, {"smiles": "Cc1nc(-c2ccc(C(C)C(=O)O)cc2Cl)sc1C", "note": "(centres undefined)", "values": [{"measurement": "logP", "result": 3.94}]}, {"smiles": "CCCCc1csc(-c2ccc(C(C)C(=O)O)cc2F)n1", "note": "(centres undefined)", "values": [{"measurement": "logP", "result": 4.66}]}, {"smiles": "CC(C(=O)O)c1ccc(-c2nc(C(N)=O)cs2)cc1", "note": "(centres undefined)", "values": [{"measurement": "logD", "setting": "pH 2.0", "result": 2.17}]}, {"smiles": "CC(C(=O)O)c1ccc(-c2nccs2)c(Cl)c1", "note": "(centres undefined)", "values": [{"measurement": "logP", "result": 3.39}]}, {"smiles": "CCc1csc(-c2ccc(C(C)C(=O)O)cc2)n1", "note": "(centres undefined)", "values": [{"measurement": "logP", "result": 3.75}]}, {"smiles": "Cc1csc(-c2ccc(C(C)C(=O)O)cc2Cl)n1", "note": "(centres undefined)", "values": [{"measurement": "logP", "result": 3.65}]}, {"smiles": "Cc1cnc(-c2ccc(C(C)C(=O)O)cc2Cl)s1", "note": "(centres undefined)", "values": [{"measurement": "logP", "result": 3.66}]}, {"smiles": "CC(C(=O)O)c1ccc(-c2nc(C(=O)N(C)C)cs2)cc1", "note": "(centres undefined)", "values": [{"measurement": "logD", "setting": "pH 2.0", "result": 2.15}]}, {"smiles": "CC(C(=O)O)c1ccc(-c2nccs2)c(N)c1", "note": "(centres undefined)", "values": [{"measurement": "logD", "setting": "pH 3.4", "result": 2.45}]}, {"smiles": "Cc1nc(-c2ccc(C(C)C(=O)O)cc2)sc1C", "note": "(centres undefined)", "values": [{"measurement": "logP", "result": 3.36}]}, {"smiles": "CNC(=O)c1csc(-c2ccc(C(C)C(=O)O)cc2)n1", "note": "(centres undefined)", "values": [{"measurement": "logD", "setting": "pH 2.0", "result": 2.45}]}, {"smiles": "Cc1cnc(-c2ccc(C(C)C(=O)O)cc2F)s1", "note": "(centres undefined)", "values": [{"measurement": "logP", "result": 3.55}]}, {"smiles": "Cc1nc(-c2ccc(C(C)C(=O)O)cc2F)sc1C", "note": "(centres undefined)", "values": [{"measurement": "logP", "result": 3.74}]}, {"smiles": "CC(C(=O)O)c1ccc(-c2nccs2)c(F)c1", "note": "(centres undefined)", "values": [{"measurement": "logP", "result": 3.14}]}]}
